Consider one substance from US20090004683A1, “Indicator Agent for Noninflammatory Stress Response and Use Thereof” (priority 2004, published 2009).

Test [1] addresses T1, caspase-1 (Mus musculus, UniProt P29452).
T1 construct: from tissue; host or cells: mouse adrenal (homogenate)
T1 sequence (P29452 119-296 limits assumed): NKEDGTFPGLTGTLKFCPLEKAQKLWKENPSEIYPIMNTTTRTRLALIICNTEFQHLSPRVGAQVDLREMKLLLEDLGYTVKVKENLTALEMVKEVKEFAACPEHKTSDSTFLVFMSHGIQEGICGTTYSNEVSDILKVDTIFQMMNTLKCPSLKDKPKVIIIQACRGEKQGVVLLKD
T1 sequence (P29452 315-402 limits assumed): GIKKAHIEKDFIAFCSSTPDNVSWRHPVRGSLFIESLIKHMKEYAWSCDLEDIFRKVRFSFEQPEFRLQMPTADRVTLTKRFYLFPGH
Description: Caspase-1 activity in the adrenal of restraint stress mice (Ac-YVAD-MCA fluorescent substrate). The format is in vivo. Particulars: given i.p. during restraint. How it is done:
(§1) Each mouse was kept in a restrainer for 1 hour, and Ac-YVAD-CHO (200 μM/50 μl PBS(−)), Z-FA-fmk (100 μM/50 μl PBS(−)) and SB-203580 (100 μg/50 μl PBS(−) per mouse) were administered intraperitoneally. 1 and 3 hours after the start of restraint, SOD-1 (20 U) and DPI (30 μg) were administered intraperitoneally to the mouse, and samples were analyzed by Western blotting.
Caspase-1 activity in the adrenal was measured using a caspase assay kit (manufactured by BD-Pharmingen). Describing briefly, a homogenate of adrenal tissue was incubated with Ac-YVAD-MCA (acetyl-L-tyrosyl-L-valyl-L-alanyl-L-aspartic acid 4-methyl-coumaryl-7-amide), which is a fluorescent substrate for caspase-1, and the MCA leaving from the aforementioned substrate was measured using a fluorescence plate reader (excitation wavelength 380 nm, irradiation wavelength 420-460 nm).

Test [2] has as its system Brain microglia. Description: IL-18 release from microglia with paraquat stimulation. The format is cell-based, mouse. Particulars: microglia, 100 nM paraquat 1 hour; SOD 1-20 U/ml or water-soluble vitamin E 100 nM-10 mM/ml. The protocol:
Brain microglia isolated from the mouse neonatal brain by the method of Hassan et al. (Hassan N F, Rifat S, Campbell D E, McCawley L J, Douglas S D. J. Leukoc Biol. 1991 July; 50(1):86-92) were cultured at 1.5-2.0×10^6/ml. This was cultured in Dulbecco's minimum essential medium containing 100 nM of paraquat, which is an active oxygen generator, for 1 hour, after which the medium was exchanged with a paraquat-free medium. After further cultivation for 3 hours, the medium was collected, and the concentration of IL-18 protein in the medium was measured.

In test [3] the test system is Brain astrocytes. The test can be described thus: IL-18 release from astrocytes with paraquat stimulation. The format is cell-based, mouse. Particulars: astrocytes, 100 nM paraquat 1 hour; SOD 1-20 U/ml or water-soluble vitamin E 100 nM-10 mM/ml. How it is done:
Brain astrocytes isolated from the mouse neonatal brain by the method of Yang et al. (Yang P, Hernandez M R. Brain Res Brain Res Protoc. 2003 October; 12(2):67-76) were prepared at 1.5-2.0×10^6/ml. This was cultured in Dulbecco's minimum essential medium containing 100 nM of paraquat, which is an active oxygen generator, for 1 hour, after which the medium was exchanged with a paraquat-free medium. The cells were further cultured for 3 hours, after which the medium was collected, and the concentration of IL-18 protein in the medium was measured.

In test [4] the test system is phosphorylated (Thr180/Tyr182) P38 MAP kinase. The test can be described thus: Phosphorylated P38MAP kinase in the adrenal of restraint stress mice (Western blotting). Particulars: SOD-1 20 U i.p. 1 and 3 hours after start of restraint, FIG. 4A. The format is in vivo, mouse. How it is done:
as §1
Western blot analysis of IL-18 and phosphorylated P38MAP kinase in adrenal tissue was performed as described below. The adrenal tissue was homogenized in an immunoprecipitation (IP) buffer solution (50 mM Tris pH 7.4, 150 mM NaCl, 0.5% NP-40 and 0.5% sodium deoxycholate) containing a protease inhibitor mixture (manufactured by Roche Diagnostics) using a Polytron homogenizer. The homogenate obtained (100 μg protein) was pre-clarified using protein A/G agarose (Exalpha Biologicals, Inc.), incubated with the anti-mouse IL-18 monoclonal antibody or the anti-phosphorylated (Thr180/Tyr182) P38 MAP kinase antibody and protein A/G agarose (50 μl), and centrifuged (at 13000×g for 25 minutes, 4° C.). The precipitate was boiled, and the adrenal protein was recovered, electrophoresed in 10-20% SDS-polyacrylamide gradient gel, and electrically transferred to a Hybond ECL (manufactured by Amersham) nitrocellulose membrane. The aforementioned membrane was incubated with an antibody (IL-18, phosphorylated (Thr180/Tyr182) P38 MAP kinase, caspase-1 or caspase-11), and the reacted protein was detected using an ECL plus system (manufactured by Amersham biosciences). Procaspase-11 and activated P38 MAP kinase were quantified using a Science Lab 99 image analysis system (manufactured by Fujifilm).

Test [5] has as its system IL-6. The test can be described thus: Plasma IL-6 level in stress-loaded wild type mice (ELISA). The format is in vivo, mouse. The settings on record: stress-loaded WT mice; FIG. 5B. The protocol: For restraint stress, each mouse was kept in a restrainer (a round plastic tube 27 mm in diameter) for 1, 3 or 6 hours, and IL-18 levels were measured. Regarding the analysis of IL-6, each mouse was restrained as described above, and then housed in the starting cage for 6 hours, after which a measurement was performed.
After restraint, each mouse was anesthetized with diethyl ether, and blood was drawn into an EDTA-containing tube. Plasma was separated by centrifugation at 4° C. and 10000×g for 10 minutes, and stored at −80° C. IL-18 and IL-6 were analyzed by ELISA using Quantikine™ immunoassay kit (R&D Systems) and OptEIA™ (BD-Pharmingen), respectively.
Using IL-18-deficient mice, the relationship between IL-6, which is another stress-related cytokine, and IL-18, was examined. Without stress, IL-6 was undetectable in WT and IL-18 KO, but after 3 hours of stress loading, the IL-6 level was 230 pg/ml in WT and 25 pg/ml in IL-18 KO (FIG. 5A). After liberation from the stress, plasma IL-6 was kept at about 80 pg/ml in WT, but decreased to 5 pg/ml in IL-18 KO (FIG. 5A). Treatment with YVAD-CHO, SOD and anti-IL-18 antibody 70% inhibited the stress-induced increase in plasma IL-6 level in WT (FIG. 5B).
On the technique in general: ELISA stands for enzyme-linked immunosorbent assay.

As for “SOD: superoxide dismutase (SOD)-1 purchased from Sigma; active oxygen eliminator”, in test [1], the “stress-induced increase in caspase-1 activity in the adrenal” value is “reduced”. In addition, the “activation and release of IL-18 into the medium” value in test [2] and in test [3] was “suppressed” in each case. In addition, the “inhibition of the phosphorylation of P38MAP kinase in the adrenal” value in test [4] is on record as “about 70%”. The “inhibition of the stress-induced increase in plasma IL-6 level” value in test [5] amounted to 70%.
